# What was measured:
# [1] = target: T1, human A2B receptors (Homo sapiens, UniProt P29275); assay: Functional human A2B receptor activity, recombinant HEK293 cells, cAMP (HTRF); format: cell-based; details: read-out: A2B (Category)
# T1 construct: expressed in transfected cells; host or cells: HEK293
# T1 sequence (P29275 1-332): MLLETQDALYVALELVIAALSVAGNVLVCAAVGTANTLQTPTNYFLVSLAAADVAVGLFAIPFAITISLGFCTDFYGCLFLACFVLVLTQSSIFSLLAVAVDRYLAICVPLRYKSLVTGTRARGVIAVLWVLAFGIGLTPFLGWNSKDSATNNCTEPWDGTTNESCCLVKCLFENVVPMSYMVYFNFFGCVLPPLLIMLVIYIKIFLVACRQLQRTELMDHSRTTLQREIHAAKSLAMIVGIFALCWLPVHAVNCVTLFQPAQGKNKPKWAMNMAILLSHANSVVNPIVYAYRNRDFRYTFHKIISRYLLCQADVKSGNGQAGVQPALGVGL
# Protocol: (§1) The functional activities of human A2A and A2B receptors were determined by quantification of cAMP, being the second messenger for adenosine receptors.
# (§2) After a 15 min incubation, HTRF reagents (cAMP dynamic 2, Cis Bio) were added and the cellular cAMP levels were determined using the ENVISION (Perkin Elmer) plate reader.
# [2] = target: T2, human A2A receptors (Homo sapiens, UniProt P29274); assay: Functional human A2A receptor activity, recombinant HEK293 cells, cAMP (HTRF); format: cell-based; details: read-out: A2A (Category)
# T2 construct: expressed in transfected cells; host or cells: HEK293
# Protocol: as §1, §2
# T2 sequence (P29274 whole entry): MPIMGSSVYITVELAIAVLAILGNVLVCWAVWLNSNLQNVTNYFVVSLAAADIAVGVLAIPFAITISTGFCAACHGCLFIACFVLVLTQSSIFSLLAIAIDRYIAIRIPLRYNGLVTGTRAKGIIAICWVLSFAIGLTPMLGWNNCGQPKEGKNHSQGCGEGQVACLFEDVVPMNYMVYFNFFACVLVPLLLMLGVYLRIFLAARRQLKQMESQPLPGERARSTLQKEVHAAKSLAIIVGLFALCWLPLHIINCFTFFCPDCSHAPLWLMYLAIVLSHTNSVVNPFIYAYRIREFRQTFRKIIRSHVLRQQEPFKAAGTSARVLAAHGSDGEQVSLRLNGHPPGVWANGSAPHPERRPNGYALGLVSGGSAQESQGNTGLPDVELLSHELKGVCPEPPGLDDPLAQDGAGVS
Compound,IC50 [1] [nM],IC50 [2] [nM]
"CS(=O)(=O)Cn1nc(-c2coc3ccccc23)c2cnc(C(=O)N3[C@@H]4CC[C@H]3C[C@@H](O)C4)cc21 [Compound 37, [3-(benzofuran-3-yl)-1-(methylsulfonylmethyl)pyrazolo[4,3-c]pyridin-6-yl]-(3-endo-hydroxy-8-azabicyclo[3.2.1]octan-8-yl)methanone]",< 100,< 100
"CS(=O)(=O)Cn1nc(-c2coc3ccccc23)c2cnc(C(=O)N3CCCC(O)C3)cc21 (stereo not drawn) [Compound 38, (3-Benzofuran-3-yl-1-methanesulfonylmethyl-1H-pyrazolo[4,3-c]pyridin-6-yl)-(3-hydroxy-piperidin-1-yl)-methanone]",< 1000,< 100
"Cn1nc(-c2cnc3ccc(F)cn23)c2cnc(C(=O)N3CCCCCC3)cc21 [Compound 41, Azepan-1-yl-[3-(6-fluoro-imidazo[1,2-a]pyridin-3-yl)-1-methyl-1H-pyrazolo[4,3-c]pyridin-6-yl]-methanone]",< 1000,< 100
"O=C(c1cc2c(cn1)c(-c1cnc3ccc(Cl)cn13)nn2CC(F)(F)F)N1CCCCCC1 [Compound 48, Azepan-1-yl-[3-(6-chloro-imidazo[1,2-a]pyridin-3-yl)-1-(2,2,2-trifluoro-ethyl)-1H-pyrazolo[4,3-c]pyridin-6-yl]-methanone]",< 1000,< 100
"O=C(c1cc2c(cn1)c(-c1cnc3ncc(F)cn13)nn2CC(F)(F)F)N1CCCCCC1 [Compound 50, Azepan-1-yl-[3-(6-fluoro-imidazo[1,2-a]pyrimidin-3-yl)-1-(2,2,2-trifluoro-ethyl)-1H-pyrazolo[4,3-c]pyridin-6-yl]-methanone]",< 1000,< 100
"O=C(c1cc2c(cn1)c(-c1ccc3ccccn13)nn2CC(F)(F)F)N1CCCCCC1 [Compound 52, Azepan-1-yl-[3-indolizin-3-yl-1-(2,2,2-trifluoro-ethyl)-1H-pyrazolo[4,3-c]pyridin-6-yl]-methanone]",< 1000,< 100
"O=C(c1cc2c(cn1)c(-c1cnc3ccccn13)nn2CC(F)(F)F)N1CCCCCC1 [Compound 55, Azepan-1-yl-[3-imidazo[1,2-a]pyridin-3-yl-1-(2,2,2-trifluoro-ethyl)-1H-pyrazolo[4,3-c]pyridin-6-yl]-methanone]",< 1000,< 100
"O=C(c1cc2c(cn1)c(-c1cnc3cnccn13)nn2CC(F)(F)F)N1CCCCCC1 [Compound 56, Azepan-1-yl-[3-imidazo[1,2-a]pyrazin-3-yl-1-(2,2,2-trifluoro-ethyl)-1H-pyrazolo[4,3-c]pyridin-6-yl]-methanone]",< 1000,< 100
"COc1ccc2ncc(-c3nn(CC(F)(F)F)c4cc(C(=O)N5CCCCCC5)ncc34)n2c1 [Compound 59, Azepan-1-yl-[3-(6-methoxy-imidazo[1,2-a]pyridin-3-yl)-1-(2,2,2-trifluoro-ethyl)-1H-pyrazolo[4,3-c]pyridin-6-yl]-methanone]",< 1000,< 100
"Cc1ccc2ncc(-c3nn(CC(F)(F)F)c4cc(C(=O)N5CCCCCC5)ncc34)n2c1 [Compound 61, Azepan-1-yl-[3-(6-methyl-imidazo[1,2-a]pyridin-3-yl)-1-(2,2,2-trifluoro-ethyl)-1H-pyrazolo[4,3-c]pyridin-6-yl]-methanone]",< 1000,< 100
"O=C(c1cc2c(cn1)c(-c1cnc3ccc(O)cn13)nn2CC(F)(F)F)N1CCCCCC1 [Compound 68, Azepan-1-yl-[3-(6-hydroxy-imidazo[1,2-a]pyridin-3-yl)-1-(2,2,2-trifluoro-ethyl)-1H-pyrazolo[4,3-c]pyridin-6-yl]-methanone]",< 1000,< 100
"O=C(c1cc2c(cn1)c(-c1nnc3ccccn13)nn2CC(F)(F)F)N1CCCCCC1 [Compound 71, Azepan-1-yl-[3-[1,2,4]triazolo[4,3-a]pyridin-3-yl-1-(2,2,2-trifluoro-ethyl)-1H-pyrazolo[4,3-c]pyridin-6-yl]-methanone]",< 1000,< 100
"O=C(c1cc2c(cn1)c(-c1cnc3cc(F)c(Cl)cn13)nn2CC(F)(F)F)N1CCCCCC1 [Compound 74, Azepan-1-yl-[3-(6-chloro-7-fluoro-imidazo[1,2-a]pyridin-3-yl)-1-(2,2,2-trifluoro-ethyl)-1H-pyrazolo[4,3-c]pyridin-6-yl]-methanone]",< 1000,< 100
"O=C(c1cc2c(cn1)c(-c1cnc3ccc(F)cn13)nn2CC(F)(F)F)N1CCCOCC1 [Compound 80, [3-(6-Fluoro-imidazo[1,2-a]pyridin-3-yl)-1-(2,2,2-trifluoro-ethyl)-1H-pyrazolo[4,3-c]pyridin-6-yl]-1,4-oxazepan-4-yl-methanone]",< 1000,< 100
"N#Cc1ccc2ncc(-c3nn(CC(F)(F)F)c4cc(C(=O)N5CCCOCC5)ncc34)n2c1 [Compound 81, 3-[6-(1,4-Oxazepane-4-carbonyl)-1-(2,2,2-trifluoro-ethyl)-1H-pyrazolo[4,3-c]pyridin-3-yl]-imidazo[1,2-a]pyridine-6-carbonitrile]",< 1000,< 100
"O=C(c1cc2c(cn1)c(-c1cnc3ccc(F)cn13)nn2CC(F)(F)F)N1CC2CCC(C1)O2 [Compound 82, [3-(6-Fluoro-imidazo[1,2-a]pyridin-3-yl)-1-(2,2,2-trifluoro-ethyl)-1H-pyrazolo[4,3-c]pyridin-6-yl]-(8-oxa-3-aza-bicyclo[3.2.1]oct-3-yl)-methanone]",< 1000,< 100
"O=C(c1cc2c(cn1)c(-c1cnc3c(F)cc(F)cn13)nn2CC(F)(F)F)N1CC2CCC(C1)O2 [Compound 83, [3-(6,8-Difluoro-imidazo[1,2-a]pyridin-3-yl)-1-(2,2,2-trifluoro-ethyl)-1H-pyrazolo[4,3c]pyridin-6-yl]-(8-oxa-3-aza-bicyclo[3.2.1]oct-3-yl)-methanone]",< 1000,< 100

# More lines, now with the values ahead:
IC50 [1] [nM],IC50 [2] [nM],Compound
< 1000,< 100,"COCC1CCCN1C(=O)c1cc2c(cn1)c(-c1coc3ccccc13)nn2CS(C)(=O)=O (stereo not drawn) [Compound 34, (3-Benzofuran-3-yl-1-methanesulfonylmethyl-1H-pyrazolo[4,3-c]pyridin-6-yl)-(2-methoxymethyl-pyrrolidin-1-yl)-methanone]"
< 1000,< 100,"CC1(C)CC(O)CCN1C(=O)c1cc2c(cn1)c(-c1coc3ccccc13)nn2CS(C)(=O)=O (stereo not drawn) [Compound 35, (3-Benzofuran-3-yl-1-methanesulfonylmethyl-1H-pyrazolo[4,3-c]pyridin-6-yl)-(4-hydroxy-2,2 dimethyl-piperidin-1-yl)-methanone]"
< 100,< 100,"CS(=O)(=O)Cn1nc(-c2coc3ccccc23)c2cnc(C(=O)N3CCC(O)CC3)cc21 [Compound 36, (3-Benzofuran-3-yl-1-methanesulfonylmethyl-1H-pyrazolo[4,3-c]pyridin-6-yl)-(4-hydroxy-piperidin-1-yl)-methanone]"
< 100,< 100,"CS(=O)(=O)Cn1nc(-c2coc3ccccc23)c2cnc(C(=O)N3CCCC(F)(F)C3)cc21 [Compound 39, (3-Benzofuran-3-yl-1-methanesulfonylmethyl-1H-pyrazolo[4,3-c]pyridin-6-yl)-(3,3-difluoro-piperidin-1-yl)-methanone]"
< 100,< 100,"CS(=O)(=O)Cn1nc(-c2coc3ccccc23)c2cnc(C(=O)N3CCCC(O)CC3)cc21 (stereo not drawn) [Compound 40, (3-Benzofuran-3-yl-1-methanesulfonylmethyl-1H-pyrazolo[4,3-c]pyridin-6-yl)-(4-hydroxyazepan-1-yl)-methanone]"
< 100,< 100,"O=C(c1cc2c(cn1)c(-c1cnc3ccc(F)cn13)nn2CC(F)(F)F)N1CCCCCC1 [Compound 44, Azepan-1-yl-[3-(6-fluoro-imidazo[1,2-a]pyridin-3-yl)-1-(2,2,2-trifluoro-ethyl)-1H-pyrazolo[4,3-c]pyridin-6-yl]-methanone]"
< 100,< 100,"NC(=O)c1ccc2ncc(-c3nn(CC(F)(F)F)c4cc(C(=O)N5CCCCCC5)ncc34)n2c1 [Compound 46, 3-[6-(Azepane-1-carbonyl)-1-(2,2,2-trifluoro-ethyl)-1H-pyrazolo[4,3-c]-pyridin-3-yl]-imidazo[1,2-a]pyridine-6-carboxylic acid amide]"
< 100,< 100,"O=C(c1cc2c(cn1)c(-c1cnc3c(F)cc(F)cn13)nn2CC(F)(F)F)N1CCCCCC1 [Compound 60, Azepan-1-yl-[3-(6,8-difluoro-imidazo[1,2-a]pyridin-3-yl)-1-(2,2,2-trifluoro-ethyl)-1H-pyrazolo[4,3-c]pyridin-6-yl]-methanone]"
< 100,< 100,"O=C(c1cc2c(cn1)c(-c1cnc3c(F)cccn13)nn2CC(F)(F)F)N1CCCCCC1 [Compound 62, Azepan-1-yl-[3-(8-fluoro-imidazo[1,2-a]pyridin-3-yl)-1-(2,2,2-trifluoro-ethyl)-1H-pyrazolo[4,3-c]pyridin-6-yl]-methanone]"
< 100,< 100,"O=C(c1cc2c(cn1)c(-c1cnc3cc(Cl)c(F)cn13)nn2CC(F)(F)F)N1CCCCCC1 [Compound 73, Azepan-1-yl-[3-(7-chloro-6-fluoro-imidazo[1,2-a]pyridin-3-yl)-1-(2,2,2-trifluoro-ethyl)-1H-pyrazolo[4,3-c]pyridin-6-yl]-methanone]"
